Assay results published in PMC8869731, “KasQ an Epimerase Primes the Biosynthesis of Aminoglycoside Antibiotic Kasugamycin and KasF/H Acetyltransferases Inactivate Its Activity” (Biomedicines, 2022).
Like-named read-outs stand apart in the source and are kept apart here.

How the values were obtained:
KasQ = KasQ (Streptomyces kasugaensis, UniProt A0A0K1H2R6); test: Isothermal titration calorimetry (ITC) of KasQ wild type versus substrates; assay type: binding; conditions: for ∆G / ∆H / ∆S / Kd / n: KasQ wild type; for Kd / n: 25 °C, 50 mM HEPES pH 8.0, 100 mM NaCl; for n: ITC binding stoichiometry;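 on all read-outs here: titration of 1 mM substrate into 0.1 mM KasQ, 18 injections spaced 120 s, data fitted to a single-site binding model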
Chain of KasQ (A0A0K1H2R6 entry or part of it): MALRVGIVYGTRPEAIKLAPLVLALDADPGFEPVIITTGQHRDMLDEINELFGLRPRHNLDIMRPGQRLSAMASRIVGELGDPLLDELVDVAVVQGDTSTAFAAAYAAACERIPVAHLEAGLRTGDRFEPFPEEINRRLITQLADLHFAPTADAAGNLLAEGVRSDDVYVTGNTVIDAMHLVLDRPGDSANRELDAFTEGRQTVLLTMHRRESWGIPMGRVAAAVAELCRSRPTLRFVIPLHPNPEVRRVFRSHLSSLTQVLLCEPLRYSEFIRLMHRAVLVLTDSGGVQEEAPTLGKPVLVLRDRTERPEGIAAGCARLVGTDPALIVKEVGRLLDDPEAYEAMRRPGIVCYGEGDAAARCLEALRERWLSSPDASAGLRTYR
Protocol: (§3) ITC analyses were carried out at 25 °C using an ITC200 microcalorimeter (MicroCal Inc., Northampton, MA, USA). […] The titration experiment contains 18 injections (2 μL for a duration of 4 s) and each injection was separated by 120 s. The distilled water was filled in the reference cell throughout all titrations. The cell stirring speed was 1000 rpm. The collected raw data were processed in Origin 7.0 (provided by MicroCal) by a non-linear least square method to a single-site binding model.

KasH = KasH (Streptomyces kasugaensis, UniProt A0A0K1H2T0); test: ITC of KasH versus ligands; conditions: KasH; for n: ITC binding stoichiometry; for n / Kd: 50 mM MOPS pH 7.5, 100 mM NaCl; for ∆G / ∆H / ∆S / Kd: ITC;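 on all read-outs here: isothermal titration calorimetry at 25 °C, 0.1 mM KasH in the cell titrated with 1 mM ligand over 18 injections, data fit with a one-site binding model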
Chain of KasH (A0A0K1H2T0 entry or part of it): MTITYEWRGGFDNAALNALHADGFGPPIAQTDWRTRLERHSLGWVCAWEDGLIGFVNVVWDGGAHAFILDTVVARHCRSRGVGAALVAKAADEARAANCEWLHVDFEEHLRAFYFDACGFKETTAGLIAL
Protocol: as §3

KasQ E308A = KasQ E308A (Streptomyces kasugaensis, UniProt A0A0K1H2R6, E308A); test: biochemical; assay type: binding
Chain of KasQ E308A (A0A0K1H2R6 entry or part of it E308A): as the sequence (A0A0K1H2R6 entry or part of it) above
Protocol: (§1) Site-directed mutagenesis was performed using QuikChange (Stratagene), following the manufacturer’s protocol. The wild-type KasQ plasmid (BCRC12349) was used as the template for the single mutation. All mutations were confirmed by DNA sequencing. KasQ mutants were expressed and purified with the same protocol as used for the wild-type protein.
(§2) The cell stirring speed was 1000 rpm.

KasQ Q95A = KasQ Q95A (Streptomyces kasugaensis, UniProt A0A0K1H2R6, Q95A); test: biochemical; assay type: binding
Chain of KasQ Q95A (A0A0K1H2R6 entry or part of it Q95A): as the sequence (A0A0K1H2R6 entry or part of it) above, with Q95A counted along it
Protocol: as §1, §2

KasQ Q95E = KasQ Q95E (Streptomyces kasugaensis, UniProt A0A0K1H2R6, Q95E); test: biochemical; assay type: binding
Chain of KasQ Q95E (A0A0K1H2R6 entry or part of it Q95E): as the sequence (A0A0K1H2R6 entry or part of it) above, with Q95E counted along it
Protocol: as §1, §2

Row | Compound | ∆G (KasQ; ITC) | ∆H (KasQ; ITC) | ∆S (KasQ; ITC) | Kd (KasQ; ITC) | other results
1 | CC(=O)NC1=CO[C@H](CO)[C@@H](O)[C@@H]1O [AAG 2, 2-acetamidoglucal] | NBD | NBD | NBD | NBD | Kd (KasQ; ITC, listed as AAG): no binding affinity
2 | Nc1ncnc2c1ncn2[C@@H]1O[C@H](COP(=O)(O)OP(=O)(O)O)[C@@H](O)[C@H]1O [ADP] | NBD | NBD | NBD | nor AMP, ADP, ATP, GMP, GDP, or GTP shows detectable binding affinity and NBD | –
3 | Nc1ncnc2c1ncn2[C@@H]1O[C@H](COP(=O)(O)O)[C@@H](O)[C@H]1O [AMP] | NBD | NBD | NBD | nor AMP, ADP, ATP, GMP, GDP, or GTP shows detectable binding affinity and NBD | –
4 | Nc1ncnc2c1ncn2[C@@H]1O[C@H](COP(=O)(O)OP(=O)(O)OP(=O)(O)O)[C@@H](O)[C@H]1O [ATP] | NBD | NBD | NBD | nor AMP, ADP, ATP, GMP, GDP, or GTP shows detectable binding affinity and NBD | –
5 | CC(=O)SCCNC(=O)CCNC(=O)[C@H](O)C(C)(C)COP(=O)(O)OP(=O)(O)OC[C@H]1O[C@@H](n2cnc3c(N)ncnc32)[C@H](O)[C@@H]1OP(=O)(O)O [AcCoA] | – | – | – | – | n (KasH): 1.3 ± 0.4; ∆G (KasH): -5.240 ± 8.196 kcal/mol; ∆H (KasH): -14.19 ± 8.196 kcal/mol; ∆S (KasH): -30.02 cal mol-1 K-1; Kd (KasH): 161 µM
6 | CC(=O)CC(=O)SCCNC(=O)CCNC(=O)[C@H](O)C(C)(C)COP(=O)(O)OP(=O)(O)OC[C@H]1O[C@@H](n2cnc3c(N)ncnc32)[C@H](O)[C@@H]1OP(=O)(O)O [Acetoacetyl-CoA, acetoacetyl-CoA] | – | – | – | – | n (KasH): 0.5 ± 0.1; ∆G (KasH): -5.469 ± 2.477 kcal/mol; ∆H (KasH): -6.149 ± 2.477 kcal/mol; ∆S (KasH): -2.28 cal mol-1 K-1; Kd (KasH): 98 µM
7 | CC(C)(COP(=O)(O)OP(=O)(O)OC[C@H]1O[C@@H](n2cnc3c(N)ncnc32)[C@H](O)[C@@H]1OP(=O)(O)O)[C@@H](O)C(=O)NCCC(=O)NCCS [CoA] | – | – | – | – | n (KasH): 0.6 ± 0.0; ∆G (KasH): -5.478 ± 1.342 kcal/mol; ∆H (KasH): -7.350 ± 1.342 kcal/mol; ∆S (KasH): -6.28 cal mol-1 K-1; Kd (KasH): 96.1 µM
8 | O=C[C@H](O)[C@@H](O)[C@@H](O)[C@H](O)CO [D-Galactose] | NBD | NBD | NBD | NBD | –
9 | OC[C@H]1OC(O)[C@H](O)[C@@H](O)[C@@H]1O (stereo partly drawn) [D-Glucose] | NBD | NBD | NBD | NBD | –
10 | OC[C@H]1OC(O)[C@@H](O)[C@@H](O)[C@@H]1O (stereo partly drawn) [D-Mannose] | NBD | NBD | NBD | NBD | –
11 | Nc1nc2c(ncn2[C@@H]2O[C@H](COP(=O)(O)OP(=O)(O)OC3O[C@H](CO)[C@@H](O)[C@H](O)[C@H]3O)[C@@H](O)[C@H]2O)c(=O)[nH]1 (some centres unmarked) [GDP-Glc] | NBD | NBD | NBD | NBD | –
12 | Nc1nc2c(ncn2[C@@H]2O[C@H](COP(=O)(O)OP(=O)(O)O[C@H]3O[C@H](CO)[C@@H](O)[C@H](O)[C@@H]3O)[C@@H](O)[C@H]2O)c(=O)[nH]1 [GDP-Man] | NBD | NBD | NBD | NBD | –
13 | Nc1nc2c(ncn2[C@@H]2O[C@H](COP(=O)(O)OP(=O)(O)O)[C@@H](O)[C@H]2O)c(=O)[nH]1 [GDP] | NBD | NBD | NBD | nor AMP, ADP, ATP, GMP, GDP, or GTP shows detectable binding affinity and NBD | –
14 | Nc1nc2c(ncn2[C@@H]2O[C@H](COP(=O)(O)O)[C@@H](O)[C@H]2O)c(=O)[nH]1 [GMP] | NBD | NBD | NBD | nor AMP, ADP, ATP, GMP, GDP, or GTP shows detectable binding affinity and NBD | –
15 | Nc1nc2c(ncn2[C@@H]2O[C@H](COP(=O)(O)OP(=O)(O)OP(=O)(O)O)[C@@H](O)[C@H]2O)c(=O)[nH]1 [GTP] | NBD | NBD | NBD | nor AMP, ADP, ATP, GMP, GDP, or GTP shows detectable binding affinity and NBD | –
16 | O=C(O)[C@H]1OC(O)[C@H](O)[C@@H](O)[C@H]1O (some centres unmarked) [GalA] | NBD | NBD | NBD | NBD | –
17 | CC(=O)N[C@H]1C(O)O[C@H](CO)[C@H](O)[C@@H]1O (some centres unmarked) [GalNAc] | NBD | NBD | NBD | NBD | –
18 | O=C(O)[C@H]1OC(O)[C@H](O)[C@@H](O)[C@@H]1O (some centres unmarked) [GlcA] | NBD | NBD | NBD | NBD | –
19 | CC(=O)N[C@H]1C(O)O[C@H](CO)[C@@H](O)[C@@H]1O (some centres unmarked) [GlcNAc] | NBD | NBD | NBD | NBD | –
20 | N[C@H]1C(O)O[C@H](CO)[C@@H](O)[C@@H]1O (some centres unmarked) [GlcNH2] | NBD | NBD | NBD | NBD | –
21 | CC(C)CC(=O)SCCNC(=O)CCNC(=O)[C@H](O)C(C)(C)COP(=O)(O)OP(=O)(O)OC[C@H]1O[C@@H](n2cnc3c(N)ncnc32)[C@H](O)[C@@H]1OP(=O)(O)O [Isovaleryl-CoA, isovaleryl-CoA] | – | – | – | – | n (KasH): 1.0 ± 0.7; ∆G (KasH): -5.048 ± 3.166 kcal/mol; ∆H (KasH): -3.116 ± 3.166 kcal/mol; ∆S (KasH): 6.48 cal mol-1 K-1; Kd (KasH): 199 µM
22 | CCC(=O)SCCNC(=O)CCNC(=O)[C@H](O)C(C)(C)COP(=O)(O)OP(=O)(O)OC[C@H]1O[C@@H](n2cnc3c(N)ncnc32)[C@H](O)[C@@H]1OP(=O)(O)O [Propionyl-CoA, propionyl-CoA] | – | – | – | – | n (KasH): 0.5 ± 0.0; ∆G (KasH): -6.081 ± 0.3918 kcal/mol; ∆H (KasH): -7.351 ± 0.3918 kcal/mol; ∆S (KasH): -4.26 cal mol-1 K-1; Kd (KasH): 35 µM
23 | Cc1cn([C@H]2C[C@H](O)[C@@H](COP(=O)(O)OP(=O)(O)O[C@H]3O[C@H](CO)[C@@H](O)[C@H](O)[C@H]3O)O2)c(=O)[nH]c1=O [TDP-Glc] | -6.273 ± 0.2773 kcal/mol | -4.568 ± 0.2773 kcal/mol | 5.72 cal mol^−1 K^−1 | – | n (KasQ): 0.3 ± 0.0; Kd (KasQ; ITC, read-out: Kd): 25.1 ± 0.2 µM
24 | Cc1cn([C@H]2C[C@H](O)[C@@H](COP(=O)(O)OP(=O)(O)OP(=O)(O)O)O2)c(=O)[nH]c1=O [TTP] | -5.128 ± 1.221 kcal/mol | -7.612 ± 1.221 kcal/mol | −8.33 cal mol^−1 K^−1 | – | n (KasQ): 1.1 ± 0.1; Kd (KasQ; ITC, read-out: Kd): 174 ± 20.2 µM
25 | O=c1ccn([C@@H]2O[C@H](COP(=O)(O)OP(=O)(O)O)[C@@H](O)[C@H]2O)c(=O)[nH]1 [UDP 3] | -6.128 ± 0.5523 kcal/mol | -4.130 ± 0.5523 kcal/mol | 6.70 cal mol^−1 K^−1 | – | n (KasQ): 1.0 ± 0.0; Kd (KasQ; ITC, read-out: Kd): 32.2 ± 6.8 µM; binding affinity versus KasQ relative to UMP, UTP and TTP (KasQ; ITC, higher than that of the others): 2–5 fold
26 | CC(=O)N[C@H]1[C@@H](OP(=O)(O)OP(=O)(O)OC[C@H]2O[C@@H](n3ccc(=O)[nH]c3=O)[C@H](O)[C@@H]2O)O[C@H](CO)[C@H](O)[C@@H]1O [UDP-GalNAc] | -4.742 ± 1.700 kcal/mol | -3.418 ± 1.700 kcal/mol | 4.44 cal mol^−1 K^−1 | – | n (KasQ): 1.8 ± 0.4
27 | O=C(O)[C@H]1O[C@H](OP(=O)(O)OP(=O)(O)OC[C@H]2O[C@@H](n3ccc(=O)[nH]c3=O)[C@H](O)[C@@H]2O)[C@H](O)[C@@H](O)[C@@H]1O [UDP-GlcA] | -5.61 ± 0.5751 kcal/mol | -1.376 ± 0.5751 kcal/mol | 14.2 cal mol^−1 K^−1 | – | n (KasQ): 1.5 ± 0.2; Kd (KasQ; ITC, read-out: Kd): 76.3 ± 15.2 µM; Kd (KasQ E308A): 106 µM; n (KasQ E308A; ITC binding stoichiometry, KasQ mutant E308A): 1.1 ± 0.7; ∆G (KasQ E308A; ITC, KasQ mutant E308A): -5.421 ± 3.692 kcal/mol; ∆H (KasQ E308A; ITC, KasQ mutant E308A): -3.194 ± 3.692 kcal/mol; ∆S (KasQ E308A; ITC, KasQ mutant E308A): 7.47 cal mol-1 K-1; Kd (KasQ Q95A): 44.4 µM; n (KasQ Q95A; ITC binding stoichiometry, KasQ mutant Q95A): 1.7 ± 0.0; ∆G (KasQ Q95A; ITC, KasQ mutant Q95A): -5.922 ± 0.0847 kcal/mol; ∆H (KasQ Q95A; ITC, KasQ mutant Q95A): -0.6748 ± 0.0847 kcal/mol; ∆S (KasQ Q95A; ITC, KasQ mutant Q95A): 17.6 cal mol-1 K-1; Kd (KasQ Q95E): 11.8 µM; n (KasQ Q95E; ITC binding stoichiometry, KasQ mutant Q95E): 2.1 ± 0.1; ∆G (KasQ Q95E; ITC, KasQ mutant Q95E): -7.15 ± 0.0195 kcal/mol; ∆H (KasQ Q95E; ITC, KasQ mutant Q95E): -0.4413 ± 0.0195 kcal/mol; ∆S (KasQ Q95E; ITC, KasQ mutant Q95E): 22.5 cal mol-1 K-1
28 | O=c1ccn([C@@H]2O[C@H](COP(=O)(O)O)[C@@H](O)[C@H]2O)c(=O)[nH]1 [UMP] | -13.19 ± 1.245 kcal/mol | -9.254 ± 1.245 kcal/mol | – | – | n (KasQ): 1.0 ± 0.0; Kd (KasQ; ITC, read-out: Kd): 124 ± 70.9 µM
29 | O=c1ccn([C@@H]2O[C@H](COP(=O)(O)OP(=O)(O)OP(=O)(O)O)[C@@H](O)[C@H]2O)c(=O)[nH]1 [UTP] | -5.645 ± 1.340 kcal/mol | -9.104 ± 1.340 kcal/mol | −11.6 cal mol^−1 K^−1 | – | n (KasQ): 1.0 ± 0.0; Kd (KasQ; ITC, read-out: Kd): 71.4 ± 5.7 µM
